Assays:
Assay type in all cases: functional
[1] = test system: Mus musculus; assay: Antimalarial activity was assessed against Plasmodium berghei in mice (Mus musculus) at 640 mg/kg dosage of the compound; Toxic
[2] = test system: Mus musculus; assay: Antimalarial activity was assessed against Plasmodium berghei in mice (Mus musculus) at 640 mg/kg dosage of the compound: Toxic
[3] = test system: Mus musculus; assay: Antimalarial activity was assessed against Plasmodium berghei in mice (Mus musculus) at 320 mg/kg dosage of the compound; Toxic
[4] = test system: Mus musculus; assay: Antimalarial activity was assessed against Plasmodium berghei in mice (Mus musculus) at 160 mg/kg dosage of the compound; Toxic
[5] = test system: Mus musculus; assay: Antimalarial activity was assessed against Plasmodium berghei in mice (Mus musculus). at 320 mg/kg dosage of the compound; Toxic

| SMILES | toxic deaths [1] [count] | toxic deaths [2] [count] | toxic deaths [3] [count] | toxic deaths [4] [count] | toxic deaths [5] [count] |
| --- | --- | --- | --- | --- | --- |
| C/C(=N\N=C(/S)N1CCCC1)c1nccc2ccccc12 | 5 | – | – | – | – |
| C/C(=N\N=C(/S)N1CCC(C)CC1)c1nccc2ccccc12 | – | 5 | 5 | 1 | – |
| C/C(=N\N=C(/S)N1CC(C)OC(C)C1)c1nccc2ccccc12 (stereo unspecified) | 2 | – | 1 | – | – |
| CC(N/N=C(\S)N1CCN(c2ccccn2)CC1)c1nccc2ccccc12 (stereo unspecified) | 1 | – | 2 | – | – |
| CC(N/N=C(\S)N(C)C)c1nccc2ccccc12 (stereo unspecified) | 5 | – | – | 1 | – |
| CC(N/N=C(\S)N1CCCC1)c1nccc2ccccc12 (stereo unspecified) | 4 | – | 2 | – | – |
| CC(N/N=C(\S)N1CCCCCC1)c1nccc2ccccc12 (stereo unspecified) | 2 | – | 3 | – | – |
| CC1CN(/C(S)=N/NC(C)c2nccc3ccccc23)CC(C)O1 (stereo unspecified) | 1 | – | – | – | 1 |
| C/C(=N\N=C(/S)N(C)C1CCCCC1)c1nccc2ccccc12 | 5 | – | – | 1 | – |
| CC(N/N=C(\S)N(C)C1CCCCC1)c1nccc2ccccc12 (stereo unspecified) | 3 | – | 3 | 2 | – |
| CC1CCN(/C(S)=N/NC(C)c2nccc3ccccc23)CC1 (stereo unspecified) | 5 | – | 5 | – | – |
| C/C(=N\N=C(/S)N1CCCCCC1)c1nccc2ccccc12 | 4 | – | – | – | – |
| C/C(=N\N=C(/S)N(C)C)c1nccc2ccccc12 | 5 | – | 5 | – | – |

Source: ChEMBL document CHEMBL1122602, “2-Acetylpyridine thiosemicarbazones. 8. Derivatives of 1-acetylisoquinoline as potential antimalarial agents” (1984)
